Source: patent US11458123B2 (Arvinas, Inc., priority 2016, dated 2022)

The compounds below were run on tau protein (assay: Tau protein in vitro degradation assay (Western blot, Tau-13 antibody)). Settings: SK-N-SH cells; 72 hours of incubation; tested at 300 nM, 100 nM, 33 nM and 11 nM; Western blot, Tau-13 antibody.
Format: cell-based, human
Method in brief: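 Tau degradation read by Tau-13 Western blot (detects all human tau forms) of SDS-PAGE-resolved lysates from SK-N-SH cells. Cells were plated at least 18 h before 72 h exposure to PROTACs at either 1000/300/100 nM or 300/100/33/11 nM.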
In the case of `Cn1c2ccncc2c2ccc(-c3ccc(O[C@H]4C[C@H](Oc5ccc(C#CCOCCOc6ccc7c(c6)C(=O)N(C6CCC(=O)NC6=O)C7=O)nc5)C4)nc3)cc21` (some centres unmarked) [Compound 179, 2-(2,6-dioxopiperidin-3-yl)-5-(2-((3-(5-((1r,3r)-3-((5-(5-methyl-5H-pyrido[4,3-b]indol-7-yl)pyridin-2-yl)oxy)cyclobutoxy)pyridin-2-yl)prop-2-yn-1-yl)oxy)ethoxy)isoindoline-1,3-dione], the “Degradation activity (tau protein remaining; highest amount of degradation observed at any dosage)” value was “A (≤50% tau protein remaining after 72 hours of incubation with the test compound)”. `O=C1CCC(N2Cc3cc(OCC#Cc4ccc(O[C@H]5C[C@H](Oc6ccc(-c7ccc8c(c7)[nH]c7ccncc78)cn6)C5)cn4)ccc3C2=O)C(=O)N1` (some centres unmarked) [Compound 180, 3-(5-((3-(5-((1r,3r)-3-((5-(5H-pyrido[4,3-b]indol-7-yl)pyridin-2-yl)oxy)cyclobutoxy)pyridin-2-yl)prop-2-yn-1-yl)oxy)-1-oxoisoindolin-2-yl)piperidine-2,6-dione] was tested, and the “Degradation activity (tau protein remaining; highest amount of degradation observed at any dosage)” value was “A (≤50% tau protein remaining after 72 hours of incubation with the test compound)”. With `Cn1c2ccncc2c2ccc(-c3ccc(O[C@H]4C[C@H](OCCCCCOCCC5CN(c6ccc7c(c6)C(=O)N(C6CCC(=O)NC6=O)C7=O)C5)C4)nc3)cc21` (some centres unmarked) [Compound 181, 2-(2,6-dioxopiperidin-3-yl)-5-(3-(2-((5-((1r,3r)-3-((5-(5-methyl-5H-pyrido[4,3-b]indol-7-yl)pyridin-2-yl)oxy)cyclobutoxy)pentyl)oxy)ethyl)azetidin-1-yl)isoindoline-1,3-dione] the “Degradation activity (tau protein remaining; highest amount of degradation observed at any dosage)” value was “B (≤80% and >50% tau protein remaining after 72 hours of incubation with the test compound)”. With `O=C1CCC(N2C(=O)c3ccc(N4CC(OCCCOCCCO[C@H]5C[C@H](Oc6ccc(-c7ccc8c(c7)[nH]c7ccncc78)cn6)C5)C4)cc3C2=O)C(=O)N1` (some centres unmarked) [Compound 182, 5-(3-(3-(3-((1r,3r)-3-((5-(5H-pyrido[4,3-b]indol-7-yl)pyridin-2-yl)oxy)cyclobutoxy)propoxy)propoxy)azetidin-1-yl)-2-(2,6-dioxopiperidin-3-yl)isoindoline-1,3-dione] the “Degradation activity (tau protein remaining; highest amount of degradation observed at any dosage)” value was “A (≤50% tau protein remaining after 72 hours of incubation with the test compound)”. `O=C1CCC(N2C(=O)c3ccc(OCC#Cc4ccc(O[C@H]5C[C@@H](Oc6ccc(-c7ccc8c(c7)[nH]c7ccncc78)cn6)C5)cn4)cc3C2=O)C(=O)N1` (some centres unmarked) [Compound 183, 5-((3-(5-((1s,3 s)-3-((5-(5H-pyrido[4,3-b]indol-7-yl)pyridin-2-yl)oxy)cyclobutoxy)pyridin-2-yl)prop-2-yn-1-yl)oxy)-2-(2,6-dioxopiperidin-3-yl)isoindoline-1,3-dione] was tested, and the “Degradation activity (tau protein remaining; highest amount of degradation observed at any dosage)” value was “A (≤50% tau protein remaining after 72 hours of incubation with the test compound)”. `Cn1c2ccncc2c2ccc(-c3ccc(OC4CN(C(=O)C56CC(CCCCCCCOc7ccc8c(c7)C(=O)N(C7CCC(=O)NC7=O)C8=O)(C5)C6)C4)nc3)cc21` (centres unmarked) [Compound 184, 2-(2,6-dioxopiperidin-3-yl)-5-((7-(3-(3-((5-(5-methyl-5H-pyrido[4,3-b]indol-7-yl)pyridin-2-yl)oxy)azetidine-1-carbonyl)bicyclo[1.1.1]pentan-1-yl)heptyl)oxy)isoindoline-1,3-dione] was tested, and the “Degradation activity (tau protein remaining; highest amount of degradation observed at any dosage)” value was “A (≤50% tau protein remaining after 72 hours of incubation with the test compound)”. In the case of `Cc1ncsc1-c1ccc(CNC(=O)[C@@H]2C[C@@H](O)CN2C(=O)[C@H](C(C)C)N2Cc3ccccc3C2=O)c(OCCOc2ccc(-c3ccc4c(c3)[nH]c3ccncc34)cn2)c1` [Compound 185, (2S,4R)—N-(2-(2-((5-(5H-pyrido[4,3-b]indol-7-yl)pyridin-2-yl)oxy)ethoxy)-4-(4-methylthiazol-5-yl)benzyl)-4-hydroxy-1-((S)-3-methyl-2-(1-oxoisoindolin-2-yl)butanoyl)pyrrolidine-2-carboxamide], the “Degradation activity (tau protein remaining; highest amount of degradation observed at any dosage)” value was “C (>80% tau protein remaining after 72 hours of incubation with the test compound)”. For `Cc1ncsc1-c1ccc(CNC(=O)[C@@H]2C[C@@H](O)CN2C(=O)[C@H](C(C)C)N2Cc3ccccc3C2=O)c(OCCOCCOc2ccc(-c3ccc4c(c3)[nH]c3ccncc34)cn2)c1` [Compound 186, (2S,4R)—N-(2-(2-(2-((5-(5H-pyrido[4,3-b]indol-7-yl)pyridin-2-yl)oxy)ethoxy)ethoxy)-4-(4-methylthiazol-5-yl)benzyl)-4-hydroxy-1-((S)-3-methyl-2-(1-oxoisoindolin-2-yl)butanoyl)pyrrolidine-2-carboxamide], the “Degradation activity (tau protein remaining; highest amount of degradation observed at any dosage)” value was “B (≤80% and >50% tau protein remaining after 72 hours of incubation with the test compound)”. For `Cc1ncsc1-c1ccc(CNC(=O)[C@@H]2C[C@@H](O)CN2C(=O)[C@H](C(C)C)N2Cc3ccccc3C2=O)c(OCCOCCOCCOc2ccc(-c3ccc4c(c3)[nH]c3ccncc34)cn2)c1` [Compound 187, (2S,4R)—N-(2-(2-(2-(2-((5-(5H-pyrido[4,3-b]indol-7-yl)pyridin-2-yl)oxy)ethoxy)ethoxy)ethoxy)-4-(4-methylthiazol-5-yl)benzyl)-4-hydroxy-1-((S)-3-methyl-2-(1-oxoisoindolin-2-yl)butanoyl)pyrrolidine-2-carboxamide], the “Degradation activity (tau protein remaining; highest amount of degradation observed at any dosage)” value was “C (>80% tau protein remaining after 72 hours of incubation with the test compound)”. In the case of `O=C1CCC(N2C(=O)c3ccc(OCCOCC#Cc4ccc(O[C@H]5C[C@H](Oc6ccc(-c7ccc8c(c7)[nH]c7ccncc78)cn6)C5)cc4)cc3C2=O)C(=O)N1` (some centres unmarked) [Compound 188, 5-(2-((3-(4-((1r,3r)-3-((5-(5H-pyrido[4,3-b]indol-7-yl)pyridin-2-yl)oxy)cyclobutoxy)phenyl)prop-2-yn-1-yl)oxy)ethoxy)-2-(2,6-dioxopiperidin-3-yl)isoindoline-1,3-dione], the “Degradation activity (tau protein remaining; highest amount of degradation observed at any dosage)” value was “B (≤80% and >50% tau protein remaining after 72 hours of incubation with the test compound)”. `O=C1CCC(N2C(=O)c3ccc(OCC#Cc4ccc(O[C@H]5C[C@H](Oc6ccc(-c7ccc8c(c7)[nH]c7ccncc78)cn6)C5)cc4)cc3C2=O)C(=O)N1` (some centres unmarked) [Compound 189, 5-((3-(4-((1r,3r)-3-((5-(5H-pyrido[4,3-b]indol-7-yl)pyridin-2-yl)oxy)cyclobutoxy)phenyl)prop-2-yn-1-yl)oxy)-2-(2,6-dioxopiperidin-3-yl)isoindoline-1,3-dione] was tested, and the “Degradation activity (tau protein remaining; highest amount of degradation observed at any dosage)” value was “B (≤80% and >50% tau protein remaining after 72 hours of incubation with the test compound)”. In the case of `Cn1c2ccncc2c2ccc(-c3ccc(O[C@H]4C[C@H](OCCOCCOCCC5CN(c6ccc7c(c6)C(=O)N(C6CCC(=O)NC6=O)C7=O)C5)C4)nc3)cc21` (some centres unmarked) [Compound 190, 2-(2,6-dioxopiperidin-3-yl)-5-(3-(2-(2-(2-((1r,3r)-3-((5-(5-methyl-5H-pyrido[4,3-b]indol-7-yl)pyridin-2-yl)oxy)cyclobutoxy)ethoxy)ethoxy)ethyl)azetidin-1-yl)isoindoline-1,3-dione], the “Degradation activity (tau protein remaining; highest amount of degradation observed at any dosage)” value was “C (>80% tau protein remaining after 72 hours of incubation with the test compound)”. For `Cn1c2ccncc2c2ccc(-c3ccc(O[C@H]4C[C@H](OCCOCCCOCC5CN(c6ccc7c(c6)C(=O)N(C6CCC(=O)NC6=O)C7=O)C5)C4)nc3)cc21` (some centres unmarked) [Compound 191, 2-(2,6-dioxopiperidin-3-yl)-5-(3-((3-(2-((1r,3r)-3-((5-(5-methyl-5H-pyrido[4,3-b]indol-7-yl)pyridin-2-yl)oxy)cyclobutoxy)ethoxy)propoxy)methyl)azetidin-1-yl)isoindoline-1,3-dione], the “Degradation activity (tau protein remaining; highest amount of degradation observed at any dosage)” value was “A (≤50% tau protein remaining after 72 hours of incubation with the test compound)”. In the case of `Cn1c2ccncc2c2ccc(-c3ccc(O[C@H]4C[C@H](OCCOCCOCC5CN(c6ccc7c(c6)C(=O)N(C6CCC(=O)NC6=O)C7=O)C5)C4)nc3)cc21` (some centres unmarked) [Compound 192, 2-(2,6-dioxopiperidin-3-yl)-5-(3-((2-(2-((1r,3r)-3-((5-(5-methyl-5H-pyrido[4,3-b]indol-7-yl)pyridin-2-yl)oxy)cyclobutoxy)ethoxy)ethoxy)methyl)azetidin-1-yl)isoindoline-1,3-dione], the “Degradation activity (tau protein remaining; highest amount of degradation observed at any dosage)” value was “C (>80% tau protein remaining after 72 hours of incubation with the test compound)”. For `Cn1c2ccncc2c2ccc(-c3ccc(OC4CC5(C4)CN(C(=O)COCCCOC4CN(c6ccc7c(c6)C(=O)N(C6CCC(=O)NC6=O)C7=O)C4)C5)nc3)cc21` (centres unmarked) [Compound 193, 2-(2,6-dioxopiperidin-3-yl)-5-(3-(3-(2-(6-((5-(5-methyl-5H-pyrido[4,3-b]indol-7-yl)pyridin-2-yl)oxy)-2-azaspiro[3.3]heptan-2-yl)-2-oxoethoxy)propoxy)azetidin-1-yl)isoindoline-1,3-dione], the “Degradation activity (tau protein remaining; highest amount of degradation observed at any dosage)” value was “B (≤80% and >50% tau protein remaining after 72 hours of incubation with the test compound)”. `O=C1CCC(N2C(=O)c3ccc(N4CC(OCC#Cc5ccc(O[C@H]6C[C@H](Oc7ccc(-c8ccc9c(c8)[nH]c8ccncc89)cn7)C6)cn5)C4)cc3C2=O)C(=O)N1` (some centres unmarked) [Compound 194, 5-(3-((3-(5-((1r,3r)-3-((5-(5H-pyrido[4,3-b]indol-7-yl)pyridin-2-yl)oxy)cyclobutoxy)pyridin-2-yl)prop-2-yn-1-yl)oxy)azetidin-1-yl)-2-(2,6-dioxopiperidin-3-yl)isoindoline-1,3-dione] was tested, and the “Degradation activity (tau protein remaining; highest amount of degradation observed at any dosage)” value was “C (>80% tau protein remaining after 72 hours of incubation with the test compound)”. For `Cn1c2cc(-c3ccc(OCCOCCOCCOCCOCCOc4ccc5c(c4)C(=O)N(C4CCC(=O)NC4=O)C5=O)nc3)ccc2c2cncc(Cl)c21` (centres unmarked) [Compound 195, 5-((14-((5-(4-chloro-5-methyl-5H-pyrido[4,3-b]indol-7-yl)pyridin-2-yl)oxy)-3,6,9,12-tetraoxatetradecyl)oxy)-2-(2,6-dioxopiperidin-3-yl)isoindoline-1,3-dione], the “Degradation activity (tau protein remaining; highest amount of degradation observed at any dosage)” value was “A (≤50% tau protein remaining after 72 hours of incubation with the test compound)”.
